“Also recorded” adds a separate entry of the source.
Tests used:
[1] = tested on: LAB isolates from commercial ethanol plants (multiple species of Lactobacillus, Lactococcus, Weissella, Leuconostoc, Pediococcus, Enterococcus, and …); test: Inhibitory activity spectrum: culture supernatant spotted onto indicator bacterial lawns; assay type: cell-based, lactic acid bacteria
Experimental: (§1) FIG. 1 is a schematic representation of the proteins responsible for producing the bacteriocin of the invention. In the discovery of the unique broad spectrum bacteriocin of this invention, indigenous LAB were isolated and purified from the fermentation mash of the commercial ethanol fermentation plants. The identities of the isolates were determined to the species level based on their 16s rDNA sequences. The capability of the isolated LAB strains to produce antimicrobial compounds was identified. Culture supernatants of the strains to be tested were spotted onto individual indicator bacterial culture lawns, which were prepared using a variety of LAB strains of different genera. […] Any positive activity of bacterial growth inhibition from the tested culture supernatant was confirmed again in the same manner, and the inhibitory activity spectrum of the antimicrobial compound is determined. […]
(§2) FIG. 1 is a schematic representation of the proteins responsible for producing the bacteriocin of the invention. The inhibitory activity spectrum of GP15cin against different strains was determined. The active concentration range and the minimum inhibition concentration of the bacteriocin are determined using different indicator strains. The activity levels of the bacteriocin present in the raw bacterial culture supernatants and/or in partially purified mixtures were also determined. […]

[2] = tested on: non-LAB isolates, such as strains of Staphylococcus, Enterobacter, Bacillus, and Clostridium; test: as above; assay type: cell-based
Experimental: as §1, §2

[3] = Stability of bacteriocin activity at different temperatures and pH values; assay type: physicochemical
Source text: FIG. 1 is a schematic representation of the proteins responsible for producing the bacteriocin of the invention. Either using crude, partially or completely purified form, the chemical characteristics of the bacteriocins can be determined. The determined characteristics include their sensitivities to different enzymes, stability at different temperatures and pH values, etc. Sensitivity of the bacteriocin to proteolytic and lipolytic enzymes, such as trypsin, pepsin, pronase, lipase, etc, was tested. The proteinaceus nature of GP15cin was confirmed. […] The same bacteriocin has optimal activity in the pH range of 4-10.

[4] = tested on: indigenous contaminating bacteria in fermentation mash from commercial ethanol plants; test: Reduction of indigenous contaminating bacterial levels in ethanol fermentation mash; assay type: cell-based; conditions: crude form
Experimental: FIG. 1 is a schematic representation of the proteins responsible for producing the bacteriocin of the invention. The inhibitory activity spectrum of GP15cin against different strains was determined. The active concentration range and the minimum inhibition concentration of the bacteriocin are determined using different indicator strains. The activity levels of the bacteriocin present in the raw bacterial culture supernatants and/or in partially purified mixtures were also determined. […] FIG. 2 to FIG. 11 show the effectiveness of GP15cin in reducing the total levels of indigenous bacteria presented in fermentation mash from different commercial ethanol plants. The exact identities of the indigenous bacteria population in different plants are unknown and are likely highly diverse.
GP15cin described herein were produced by a L. plantarum strain, which was isolated from the indigenous LAB populations present during commercial ethanol fermentation. GP15cin can act towards species and/or strains of similar indigenous LAB populations and thus can be used as an effective control for contaminating LAB. […] Either fermentor or mash cooler mash samples were collected from 6 different commercial ethanol plants on 13 different days from 2012 to 2014. Results of 15 independent tests are shown. […]

contaminating LAB = test: Lactic acid and acetic acid levels during laboratory-scale ethanol fermentation; assay type: cell-based, lactic acid bacteria
Source text: GP15cin described herein were produced by a L. plantarum strain, which was isolated from the indigenous LAB populations present during commercial ethanol fermentation. GP15cin can act towards species and/or strains of similar indigenous LAB populations and thus can be used as an effective control for contaminating LAB. […] Either fermentor or mash cooler mash samples were collected from 6 different commercial ethanol plants on 13 different days from 2012 to 2014. Results of 15 independent tests are shown. […] It is likely that the effects on controlling contaminating bacteria and acids will be even more significant if a higher dose of […] is used. The presented results highlight the feasibility of GP15cin application for control of unwanted bacteria in ethanol and other biofuel industries.

[5] = tested on: Lactobacillus GP15 (production host); test: Activity against own production host; assay type: cell-based, Lactobacillus plantarum
Source text: As noted above, GP-15cin may be applied alone or in combination with other bacteriocin and/or bacteriophage virulent for unwanted bacteria in the same system. Bacteriocin producing hosts are immune to the bacteriocins produced by themselves. GP-15cin is therefore not active against its own production host, […]. […] Therefore it is desirable to combine GP-15cin with a different bacteriocin in a cocktail that will kill the bacteria insensitive to GP15cin. Additionally GP-15cin may be combined with other antimicrobial agents to broaden the scope of effectiveness against the range of unwanted bacteria that are targeted. For example the combination of bacteriocin and bacteriophage (phage) ensures a broader inhibition spectrum and more efficient control of the bacteria contamination. Phage targeting these non-sensitive strains can be isolated, and be combined with the bacteriocin for a complete control of contaminating bacteria.

[6] = tested on: Lactobacillus fermentum strain 0315-25; test: Batch culture growth inhibition, bacteriocin and phage alone and combined; assay type: cell-based; conditions: 24 h
Experimental: Bacteriocin alone, bacteriophage alone, and bacteriocin combined with phage were tested against Lactobacillus in batch culture systems. To be specific, logarithmic growth phase cultures of Lactobacillus fermentum strain 0315-25 (OD600 being 0.1) were treated either with single agent at different doses, such as bacteriocin GP15cin alone at different doses (0.1%, 1%, and 10%, v/v), or a phage designated herein as LferInf alone at different MOIs (0.1, 1, and 10), or two agents combined together at different doses, such as 0.1% GP15cin plus LferInf at MOI of 0.1, 0.1% GP15cin plus phage LferInf at MOI of 1, 1% GP15cin plus LferInf at MOI of 0.1, and 1% GP15cin plus phage LferInf at MOI of 1. Culture without any treatment was served as control. LferInf is a bacteriophage isolated from wastewater and found to be effective against a broad host range of Lactobacillus and described in more detail below. The growth of bacteria was monitored for 24 h, and the treatment effects were compared.

## plantaricin W [GP15cin]
[1]; LAB genera plus Staphylococcus, Enterobacter, Bacillus, Clostridium
  killing spectrum against a list of bacteria: extremely broad killing spectrum
[1]; LAB isolates from commercial ethanol plants
  killing activity against LAB isolates: broad range killing activity against the vast majority of the LAB isolates
[2]
  killing activity against non-LAB isolates: showed killing activity
[3]
  pH range of optimal activity: 4-10 pH
[3]; after 2 hours at 120° C.
  loss of activity / heat resistance: not a complete loss of activity
[3]; extreme pH values
  reversibility of activity loss: does not appear to be reversible
[3]; pH 12
  loss of activity: complete loss of activity
[3]; pH values of 1, 2, 3, and 11
  reduction in activity: 50%
[3]; temperature of 12.0° C. (so in the source)
  reduction in activity: 87.5%
[3]; temperatures of 65-100° C.
  reduction in activity: 50%
[4]
  time in which the reduction effect was seen: ≥ 2 h
[4]; mash from 6 commercial ethanol plants, 15 independent tests
  reduction of indigenous contaminating bacteria levels: consistent reduction effects seen in all tests; also recorded: reduced indigenous contaminating bacteria levels in all mash samples
Contaminating LAB
  acetic acid level produced by contaminating LAB: significantly reduced
  lactic acid level produced by contaminating LAB: significantly reduced
[5]
  activity against its own production host: not active
[6]; GP15cin alone at 0.1% v/v
  growth of L. fermentum compared to control: all treatment, except GP15cin used at 0.1%, suppressed the growth
[6]; GP15cin alone at 1% and 10% v/v
  growth of L. fermentum compared to control: suppressed the growth
